Publication PMC12147714 (FEMS Microbiology Letters, 2025)

Key:
Assay type in all cases: cell-based, Pseudomonas aeruginosa
[1] = tested on: clinical isolate D1 (IMP-1); assay: microbe, parasite or virus in culture
Procedure: (§1) Thirty-two carbapenem-resistant clinical P. aeruginosa, with previously defined carbapenem-resistance mechanisms, were included.
(§2) The fractional inhibitory concentration index (FICI) was calculated and interpreted as follows: the MIC of drug A in combination/the MIC of drug A alone + the MIC of drug B in combination/the MIC drug B alone. FICI ≤ 0.5 = synergy; 0.5 < FICI ≤ 1 = additive; FICI 1 < FICI < 2 = indifference, and FICI ≥ 2 = antagonism. All susceptibility testing/checkerboard assays were performed in triplicate.

[2] = tested on: clinical isolate D10 (IMP-7); assay: microbe, parasite or virus in culture
Procedure: as §1, §2

[3] = tested on: clinical isolate D11 (IMP-7); assay: microbe, parasite or virus in culture
Procedure: as §1, §2

[4] = tested on: clinical isolate D12 (IMP-7); assay: microbe, parasite or virus in culture
Procedure: as §1, §2

[5] = tested on: clinical isolate D13 (IMP-7); assay: microbe, parasite or virus in culture
Procedure: as §1, §2

[6] = tested on: clinical isolate D14 (IMP-10); assay: microbe, parasite or virus in culture
Procedure: as §1, §2

[7] = tested on: clinical isolate D15 (IMP-13); assay: microbe, parasite or virus in culture
Procedure: as §1, §2

[8] = tested on: clinical isolate D16 (IMP-13); assay: microbe, parasite or virus in culture
Procedure: as §1, §2

[9] = tested on: clinical isolate D17 (IMP-13); assay: microbe, parasite or virus in culture
Procedure: as §1, §2

[10] = tested on: clinical isolate D18 (IMP-18); assay: microbe, parasite or virus in culture
Procedure: as §1, §2

[11] = tested on: clinical isolate D19 (IMP-4, OXA-181, VIM-5); assay: microbe, parasite or virus in culture
Procedure: as §1, §2

[12] = tested on: clinical isolate D2 (IMP-1); assay: microbe, parasite or virus in culture
Procedure: as §1, §2

[13] = tested on: clinical isolate D20 (NDM-1); assay: microbe, parasite or virus in culture
Procedure: as §1, §2

[14] = tested on: clinical isolate D21 (NDM-1); assay: microbe, parasite or virus in culture
Procedure: as §1, §2

[15] = tested on: clinical isolate D22 (NDM-1, VIM-2); assay: microbe, parasite or virus in culture
Procedure: as §1, §2

[16] = tested on: clinical isolate D23 (VIM-2); assay: microbe, parasite or virus in culture
Procedure: as §1, §2

[17] = tested on: clinical isolate D24 (VIM-2); assay: microbe, parasite or virus in culture
Procedure: as §1, §2

[18] = tested on: clinical isolate D25 (VIM-4); assay: microbe, parasite or virus in culture
Procedure: as §1, §2

[19] = tested on: clinical isolate D26 (VIM-4); assay: microbe, parasite or virus in culture
Procedure: as §1, §2

[20] = tested on: clinical isolate D27 (VIM-36); assay: microbe, parasite or virus in culture
Procedure: as §1, §2

[21] = tested on: clinical isolate D28 (GES-5, OXA-181); assay: microbe, parasite or virus in culture
Procedure: as §1, §2

[22] = tested on: clinical isolate D29 (KPC-2); assay: microbe, parasite or virus in culture
Procedure: as §1, §2

[23] = tested on: clinical isolate D3 (IMP-1); assay: microbe, parasite or virus in culture
Procedure: as §1, §2

[24] = tested on: clinical isolate D30 (KPC-2); assay: microbe, parasite or virus in culture
Procedure: as §1, §2

[25] = tested on: clinical isolate D31 (Permeability); assay: microbe, parasite or virus in culture
Procedure: as §1, §2

[26] = tested on: clinical isolate D32 (Permeability); assay: microbe, parasite or virus in culture
Procedure: as §1, §2

[27] = tested on: clinical isolate D4 (IMP-1); assay: microbe, parasite or virus in culture
Procedure: as §1, §2

[28] = tested on: clinical isolate D5 (IMP-1); assay: microbe, parasite or virus in culture
Procedure: as §1, §2

[29] = tested on: clinical isolate D6 (IMP-1); assay: microbe, parasite or virus in culture
Procedure: as §1, §2

[30] = tested on: clinical isolate D7 (IMP-1); assay: microbe, parasite or virus in culture
Procedure: as §1, §2

[31] = tested on: clinical isolate D8 (IMP-4); assay: microbe, parasite or virus in culture
Procedure: as §1, §2

[32] = tested on: clinical isolate D9 (IMP-7); assay: microbe, parasite or virus in culture
Procedure: as §1, §2

[33] = tested on: PAO1 and PAO1 TnoprD producing one of eight different carbapenemases; assay: MIC and checkerboard, isogenic strains as a group
From the text: Pseudomonas aeruginosa isolate, PAO1, was used alongside its isogenic counterpart, PAO1 TnoprD, which lacks a functional OprD porin (Held et al. [2012]). β-lactamases, blaIMP-1, blaIMP-10, blaIMP-13, blaNDM-1, blaSPM-1, blaVIM-1, blaVIM-2, and blaKPC-2, had previously been cloned into the pUCP24 shuttle vector (Bouvier et al. [2025]), and were transformed by electroporation into both PAO1 and PAO1 TnoprD.
as §2, with “. MICs of DMSA, CAZ, FEP and checkerboards for the combinations, CAZ/DMSA and FEP/DMSA, were performed for all clinical isolates. All susceptibility testing results were interpreted according to CLSI guidelines (CLSI [2023]). The” for “The”

SMILES: O=C(O)[C@@H](S)[C@@H](S)C(=O)O [DMSA, meso-dimercaptosuccinic acid]
- MIC ([1]; isolate D1, drug alone): 600 µg/mL
- MIC ([2]; isolate D10, drug alone): 600 µg/mL
- MIC ([3]; isolate D11, drug alone): 600 µg/mL
- MIC ([4]; isolate D12, drug alone): 600 µg/mL
- MIC ([5]; isolate D13, drug alone): 700 µg/mL
- MIC ([6]; isolate D14, drug alone): 900 µg/mL
- MIC ([7]; isolate D15, drug alone): 500 µg/mL
- MIC ([8]; isolate D16, drug alone): 600 µg/mL
- MIC ([9]; isolate D17, drug alone): 700 µg/mL
- MIC ([10]; isolate D18, drug alone): 600 µg/mL
- MIC ([11]; isolate D19, drug alone): 600 µg/mL
- MIC ([12]; isolate D2, drug alone): 600 µg/mL
- MIC ([13]; isolate D20, drug alone): 700 µg/mL
- MIC ([14]; isolate D21, drug alone): 700 µg/mL
- MIC ([15]; isolate D22, drug alone): 700 µg/mL
- MIC ([16]; isolate D23, drug alone): 700 µg/mL
- MIC ([17]; isolate D24, drug alone): 600 µg/mL
- MIC ([18]; isolate D25, drug alone): 600 µg/mL
- MIC ([19]; isolate D26, drug alone): 700 µg/mL
- MIC ([20]; isolate D27, drug alone): 800 µg/mL
- MIC ([21]; isolate D28, drug alone): 600 µg/mL
- MIC ([22]; isolate D29, drug alone): 800 µg/mL
- MIC ([23]; isolate D3, drug alone): 700 µg/mL
- MIC ([24]; isolate D30, drug alone): 800 µg/mL
- MIC ([25]; isolate D31, drug alone): 1000 µg/mL
- MIC ([26]; isolate D32, drug alone): 700 µg/mL
- MIC ([27]; isolate D4, drug alone): 900 µg/mL
- MIC ([28]; isolate D5, drug alone): 800 µg/mL
- MIC ([29]; isolate D6, drug alone): 800 µg/mL
- MIC ([30]; isolate D7, drug alone): 800 µg/mL
- MIC ([31]; isolate D8, drug alone): 500 µg/mL
- MIC ([32]; isolate D9, drug alone): 700 µg/mL
- MIC to DMSA alone ([33]; all isogenic strains): 900 µg/mL

SMILES: CC(C)(O/N=C(\C(=O)N[C@@H]1C(=O)N2C(C(=O)[O-])=C(C[n+]3ccccc3)CS[C@H]12)c1csc(N)n1)C(=O)O [CAZ, ceftazidime]
- MIC ([1]; Pseudomonas aeruginosa): 1020 µg/mL
- MIC ([2]; Pseudomonas aeruginosa): 512 µg/mL
- MIC ([3]; Pseudomonas aeruginosa): 512 µg/mL
- MIC ([4]; Pseudomonas aeruginosa): 512 µg/mL
- MIC ([5]; Pseudomonas aeruginosa): 512 µg/mL
- MIC ([6]; Pseudomonas aeruginosa): 1020 µg/mL
- MIC ([7]; Pseudomonas aeruginosa): 512 µg/mL
- MIC ([8]; Pseudomonas aeruginosa): 512 µg/mL
- MIC ([9]; Pseudomonas aeruginosa): 256 µg/mL
- MIC ([10]; Pseudomonas aeruginosa): 1020 µg/mL
- MIC ([11]; Pseudomonas aeruginosa): 4100 µg/mL
- MIC ([12]; Pseudomonas aeruginosa): 1020 µg/mL
- MIC ([13]; Pseudomonas aeruginosa): 4100 µg/mL
- MIC ([14]; Pseudomonas aeruginosa): 4100 µg/mL
- MIC ([15]; Pseudomonas aeruginosa): 4100 µg/mL
- MIC ([16]; Pseudomonas aeruginosa): 32 µg/mL
- MIC ([17]; Pseudomonas aeruginosa): 32 µg/mL
- MIC ([18]; Pseudomonas aeruginosa): 32 µg/mL
- MIC ([19]; Pseudomonas aeruginosa): 128 µg/mL
- MIC ([20]; Pseudomonas aeruginosa): 512 µg/mL
- MIC ([21]; Pseudomonas aeruginosa): 16 µg/mL
- MIC ([22]; Pseudomonas aeruginosa): 16 µg/mL
- MIC ([23]; Pseudomonas aeruginosa): 512 µg/mL
- MIC ([24]; Pseudomonas aeruginosa): 64 µg/mL
- MIC ([25]; Pseudomonas aeruginosa): 128 µg/mL
- MIC ([26]; Pseudomonas aeruginosa): 16 µg/mL
- MIC ([27]; Pseudomonas aeruginosa): 1020 µg/mL
- MIC ([28]; Pseudomonas aeruginosa): 512 µg/mL
- MIC ([29]; Pseudomonas aeruginosa): 512 µg/mL
- MIC ([30]; Pseudomonas aeruginosa): 1020 µg/mL
- MIC ([31]; Pseudomonas aeruginosa): 2050 µg/mL
- MIC ([32]; Pseudomonas aeruginosa): 256 µg/mL
- interaction with DMSA as indicated by the FICIs ([33]; SPM-1 and VIM-1 strains, DMSA 200 mg/l): synergy (FICI ≤ 0.5 = synergy)
- interaction with DMSA as indicated by the FICIs ([33]; strains producing IMP-1, IMP-10 or IMP-13, with and without functional OprD, all three DMSA concentrations (100, 200, 300 mg/l)): synergy (FICI ≤ 0.5 = synergy)
